This passage reports TGI and GI50 results from PubChem BioAssay (NCI).

Test systems include MOLT-4 leukemia; HOP-92 NSCLC; SF-539 CNS; SNB-19 CNS; NCI-H460 lung; LOX IMVI melanoma; UACC-62 melanoma; M14 melanoma; ACHN renal; T-47D breast.
Common to all, as to test: growth of human tumour cells (NCI), 48 h

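Test compounds were applied to cells in 96-well plates for 48 hours at 5 doses. Here, GI50 denotes the concentration required for 50% inhibition of growth. TGI: concentration producing complete growth inhibition.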 A value given as a limit tells only on which side of the number the result lay.

Turning to `NNC(=O)C(=O)N/N=C(\CCC(=O)Nc1ccc(Cl)cc1)Cc1nc2ccccc2s1`, the TGI in the assay on MOLT-4 leukemia is greater than 100 µM; in the assay with HOP-92 NSCLC it was greater than 100 µM; in the assay with SF-539 CNS, 90.4 µM; in the assay on SNB-19 CNS, greater than 100 µM; with NCI-H460 lung it was greater than 100 µM; with LOX IMVI melanoma it was 67.5 µM. The TGI is 54.3 µM with UACC-62 melanoma, 66.5 µM in the assay with M14 melanoma and greater than 100 µM in the assay with ACHN renal.

For `O=C(/C=C\c1ccccc1)N1CCc2ccccc2C1`, the TGI with HOP-92 NSCLC, in the assay with SF-539 CNS, in the assay with SNB-19 CNS, in the assay with NCI-H460 lung, in the assay with LOX IMVI melanoma and in the assay with T-47D breast was greater than 100 µM in each case. Further, the TGI in the assay on UACC-62 melanoma, with M14 melanoma and with ACHN renal was greater than 100 µM throughout.

As to `CN(C)C(=O)Oc1c(-c2ccccc2)c(=O)n2c3ccccc3n3c(=O)n(C)c(=O)c1c23`, the TGI in the assay on MOLT-4 leukemia, with HOP-92 NSCLC, in the assay with SF-539 CNS, in the assay on SNB-19 CNS, with NCI-H460 lung and in the assay with LOX IMVI melanoma was greater than 100 µM each time. In addition, the TGI with UACC-62 melanoma, in the assay on M14 melanoma and with ACHN renal was greater than 100 µM each time.

For the compound `Oc1c(CN2CCN(c3ccccc3)CC2)cc(Br)c2cccnc12`, the TGI was 6.15 µM in the assay on MOLT-4 leukemia; 30.8 µM in the assay on HOP-92 NSCLC; greater than 28.6 µM with SF-539 CNS; greater than 100 µM in the assay with SNB-19 CNS; 17 µM in the assay on LOX IMVI melanoma; greater than 47.3 µM in the assay on T-47D breast. The results for the TGI in the assay with M14 melanoma and in the assay with ACHN renal were greater than 42 µM and greater than 34.4 µM, respectively.

`C[C@]12CCC(=O)C=C1CC[C@@H]1C2CC[C@]2(C)c3nn(-c4ccccc4)nc3CC12` (some centres undefined): the TGI in the assay on MOLT-4 leukemia, in the assay on HOP-92 NSCLC, in the assay with SF-539 CNS, with SNB-19 CNS, in the assay on NCI-H460 lung and in the assay on LOX IMVI melanoma was greater than 100 µM each time. Further, the TGI with UACC-62 melanoma, in the assay on M14 melanoma and in the assay with ACHN renal was greater than 100 µM each time.

As to `N.N.O=P([O-])([O-])C1(P(=O)([O-])[O-])CCCCCN1.[Pt+2]`, the GI50 was greater than 100 µM with MOLT-4 leukemia; greater than 100 µM in the assay with HOP-92 NSCLC; 31.9 µM with SF-539 CNS; greater than 100 µM in the assay on SNB-19 CNS; greater than 100 µM in the assay with NCI-H460 lung; greater than 100 µM in the assay on LOX IMVI melanoma. In addition, the GI50 with UACC-62 melanoma, in the assay with M14 melanoma and in the assay on ACHN renal was greater than 100 µM throughout. In addition, the TGI in the assay with MOLT-4 leukemia, in the assay on HOP-92 NSCLC, in the assay with SF-539 CNS, in the assay on SNB-19 CNS, with NCI-H460 lung and with LOX IMVI melanoma was greater than 100 µM each time. In addition, the TGI in the assay with UACC-62 melanoma, with M14 melanoma and in the assay with ACHN renal was greater than 100 µM each time.

Turning to `CC(=O)[O-].O=C([CH-]C(=O)c1ccccc1)c1ccccc1.O=C([CH-]C(=O)c1ccccc1)c1ccccc1.[Sm+3]`, the GI50 is 2.41 µM with MOLT-4 leukemia; 4.96 µM in the assay on HOP-92 NSCLC; 14.6 µM with SF-539 CNS; 6.44 µM in the assay with SNB-19 CNS; 2.54 µM in the assay on NCI-H460 lung; 7.01 µM in the assay with LOX IMVI melanoma. In addition, the GI50 with UACC-62 melanoma is 3.73 µM; in the assay on M14 melanoma, 4.55 µM; in the assay with ACHN renal it was 4.96 µM. The TGI came to 21.2 µM with MOLT-4 leukemia; 19.6 µM with HOP-92 NSCLC; 45.2 µM in the assay with SF-539 CNS; 65.7 µM in the assay on SNB-19 CNS; 82.6 µM in the assay with NCI-H460 lung; 21.7 µM in the assay with LOX IMVI melanoma. For the same compound, the TGI turned out to be 19.8 µM with UACC-62 melanoma, 17.5 µM with M14 melanoma and 25.3 µM with ACHN renal.

Turning to `CC(C)=CC(=O)Cc1nc2ccc([N+](=O)[O-])cc2[nH]c1=O`, the TGI in the assay with MOLT-4 leukemia, in the assay on HOP-92 NSCLC, in the assay with SF-539 CNS, in the assay on SNB-19 CNS, with NCI-H460 lung and in the assay on LOX IMVI melanoma was greater than 100 µM throughout. In addition, the TGI with UACC-62 melanoma, in the assay on M14 melanoma and with ACHN renal was greater than 100 µM each time.

For `CC1(C)CC(N(C(=O)/C=C/c2ccc([N+](=O)[O-])o2)C2CCCCC2)CC(C)(C)N1`, the TGI was found to be 18.2 µM in the assay with MOLT-4 leukemia; 14.8 µM with HOP-92 NSCLC; 21.8 µM in the assay with SF-539 CNS; 26.3 µM in the assay with SNB-19 CNS; 13.9 µM with NCI-H460 lung; 25.4 µM in the assay with LOX IMVI melanoma. Further, the TGI in the assay on UACC-62 melanoma stood at 21.6 µM; in the assay with M14 melanoma, 9.54 µM; in the assay on ACHN renal, 25.4 µM.

As for `NC(=S)NN=C1CSSC1`, the GI50 in the assay on MOLT-4 leukemia was 3.75 µM; in the assay with HOP-92 NSCLC it was 2.35 µM; in the assay on SF-539 CNS, 2.75 µM; with SNB-19 CNS, 2.46 µM; in the assay on NCI-H460 lung it was 1.61 µM; with T-47D breast it was 4.31 µM. Also, the GI50 is 3.21 µM in the assay on UACC-62 melanoma, 1.92 µM in the assay on M14 melanoma and 3.05 µM with ACHN renal. Further, the TGI with MOLT-4 leukemia was 43 µM; with HOP-92 NSCLC, 5.89 µM; in the assay on SF-539 CNS it was 7.38 µM; with SNB-19 CNS, 11.4 µM; in the assay on NCI-H460 lung it was 6.49 µM; in the assay on T-47D breast, 29.1 µM. In addition, the TGI in the assay on UACC-62 melanoma came out at 17.2 µM; in the assay on M14 melanoma it was 7.79 µM; in the assay on ACHN renal, 31.7 µM.

`Cn1cccc1/C=C/c1cc(Br)c(/C=C/c2cccn2C)cc1Br`: the TGI in the assay on MOLT-4 leukemia is 43.2 µM; in the assay with HOP-92 NSCLC, 39.5 µM; with SF-539 CNS, 31.5 µM; in the assay on SNB-19 CNS, 92.8 µM; in the assay with NCI-H460 lung, 45.9 µM; in the assay with LOX IMVI melanoma, 56.4 µM. Further, the TGI stood at 43.1 µM with UACC-62 melanoma, 57.9 µM in the assay on M14 melanoma and 26.1 µM in the assay on ACHN renal.

As for `CCc1cccc(C)c1NC(=O)CC1C(=O)Nc2ccccc2S1(=O)=O` (centres undefined), the TGI with MOLT-4 leukemia came to 36 µM; in the assay with HOP-92 NSCLC, 31.8 µM; in the assay on SF-539 CNS, 24.6 µM; in the assay on SNB-19 CNS, 75.5 µM; with NCI-H460 lung it was 27.9 µM; in the assay on LOX IMVI melanoma, 27.3 µM. In addition, the TGI in the assay on UACC-62 melanoma worked out at 41.1 µM; with M14 melanoma, 72.1 µM; in the assay with ACHN renal it was 47.4 µM.
